Active and inactive are the calls of the source. The calls are words filed in the database; no cut-off is given here.
How the values were obtained:
A549 = assay: Cytotoxicity against human A549 cells assessed as growth inhibition at 10 uM measured after 48 hrs by MTT assay relative to control; assay type: functional; conditions: for inhibition of growth at 10 µM: A549, 48 h, read-out: GI
MIA PaCa-2 = assay: Cytotoxicity against human MIAPaCa2 cells assessed as growth inhibition at 10 uM measured after 48 hrs by MTT assay relative to control; assay type: functional; conditions: for inhibition of growth at 10 µM: MIA PaCa-2, 48 h, read-out: GI
[1] = Cytotoxicity against human FR2 cells assessed as growth inhibition at 10 uM measured after 48 hrs by MTT assay relative to control; assay type: cell-based; conditions: for inhibition at 48 h, 10 µM: FR2 cells, read-out: GI; for growth inhibition (GI): fr2, 48 h, 10 µM
MCF7 = assay: Cytotoxicity against human MCF7 cells assessed as growth inhibition at 10 uM measured after 48 hrs by MTT assay relative to control; assay type: functional; conditions: for inhibition of growth at 10 µM: MCF7, 48 h, read-out: GI
HepG2 = assay: Cytotoxicity against human HepG2 cells assessed as growth inhibition at 10 uM measured after 48 hrs by MTT assay relative to control; assay type: functional; conditions: for inhibition of growth at 10 µM: HepG2, 48 h, read-out: GI

Compound | inhibition of growth at 10 µM (A549) [%] | inhibition of growth at 10 µM (MIA PaCa-2) [%] | inhibition at 48 h, 10 µM [1] [%] | inhibition of growth at 10 µM (MCF7) [%] | inhibition of growth at 10 µM (HepG2) [%] | growth inhibition (GI) [1] | growth inhibition (GI) (A549) | growth inhibition (GI) (MIA PaCa-2) | growth inhibition (GI) (MCF7) | growth inhibition (GI) (HepG2)
O=C(/C=C/c1ccc(OCc2cn(Cc3ccccc3F)nn2)cc1)c1ccc(Br)cc1 | 38 | 28 | 8 | 38 | 29 | – | – | – | – | –
O=C(/C=C/c1ccc(OCc2cn(Cc3ccccc3)nn2)cc1)c1ccc(Br)cc1 | 34 | 44 | 7 | 34 | 22 | – | – | – | – | –
O=C(/C=C/c1ccc(OCc2cn(Cc3cccc(Br)c3)nn2)cc1)c1ccc([N+](=O)[O-])cc1 | 28 | 21 | 4 | 12 | 13 | – | – | – | – | –
O=C(/C=C/c1ccc(OCc2cn(Cc3cccc(F)c3)nn2)cc1)c1ccc([N+](=O)[O-])cc1 | 33 | 32 | 5 | 30 | 43 | – | – | – | – | –
C#CCOc1ccc(/C=C/C(=O)c2ccc(Br)cc2)cc1 | 34 | 34 | 9 | 45 | 22 | – | – | – | – | –
O=C(/C=C/c1ccc(OCc2cn(Cc3cccc(F)c3)nn2)cc1)c1ccc(Br)cc1 | 37 | 34 | 4 | 42 | 34 | – | – | – | – | –
O=C(/C=C/c1ccc(OCc2cn(Cc3ccccc3Br)nn2)cc1)c1ccc([N+](=O)[O-])cc1 | 42 | 34 | 2 | 43 | 32 | – | – | – | – | –
C#CCOc1ccc(/C=C/C(=O)c2ccc([N+](=O)[O-])cc2)cc1 | 33 | 42 | 2 | 44 | 27 | – | – | – | – | –
COc1ccc(C(=O)/C=C/c2ccc(OCc3cn(Cc4ccc(F)cc4)nn3)cc2)cc1 | 33 | 6 | – | 15 | 21 | Non-Toxic | – | – | – | –
COc1ccc(C(=O)/C=C/c2ccc(OCc3cn(Cc4ccccc4F)nn3)cc2)cc1 | 21 | 19 | 11 | 32 | 33 | – | – | – | – | –
O=C(/C=C/c1ccc(OCc2cn(Cc3ccc(F)cc3)nn2)cc1)c1ccc([N+](=O)[O-])cc1 | 34 | 44 | 8 | 38 | 25 | – | – | – | – | –
O=C(/C=C/c1ccc(OCc2cn(Cc3cccc(Br)c3)nn2)cc1)c1ccc(Br)cc1 | 44 | 43 | 9 | 36 | 25 | – | – | – | – | –
O=C(/C=C/c1ccc(OCc2cn(Cc3ccccc3Br)nn2)cc1)c1ccc(Br)cc1 | 44 | 43 | 11 | 44 | 34 | – | – | – | – | –
C#CCOc1ccc(/C=C/C(=O)c2ccc(OC)cc2)cc1 | 27 | 32 | 8 | 32 | 25 | – | – | – | – | –
O=C(/C=C/c1ccc(OCc2cn(Cc3ccccc3)nn2)cc1)c1ccc([N+](=O)[O-])cc1 | – | – | – | – | – | Non-Toxic | inactive | inactive | inactive | inactive

Source: ChEMBL document CHEMBL4000203, “Green synthesis and anticancer potential of chalcone linked-1,2,3-triazoles” (Eur J Med Chem, 2017)
